Source: US20240189307A1, “METHODS OF STABILIZING THE NEURONAL PROTEOME AGAINST COLLAPSE AND PROTECTING VASCULAR CELLS” (ALBERT EINSTEIN COLLEGE OF MEDICINE, priority 2021, published 2024)

Key:
[1] = tested on: NIH3T3 cells stably expressing the KFERQ-PS-Dendra reporter; experiment: CMA activity in cells with KFERQ-PS-Dendra reporter (fluorescent puncta per cell); format: cell-based, mouse; details: increasing concentrations; 12 h, 16 h or 24 h treatment
Procedure: (§1) FIG. 10. Characterization of the brain permeable chemical activator of CMA and effect in a mouse model of Frontotemporal dementia-related proteotoxicity. (A) Chemical structure of AR7 and CA77.1. (B) Quantification of the effect of adding increasing concentrations of AR7 and CA77.1 to NIH3T3 cells stably expressing the KFERQ-PS-Dendra reporter. CMA activity was quantified after 16 h treatment as the average of fluorescent puncta per cell. (n>800 cells per condition). (C) Autophagic flux in NIH3T3 cells incubated at 37° C. for 16 h with 20 µM AR7 or CA77.1 or without additions (none). Where indicated lysosomal protease inhibitors (PI) were added to the cells 6 h before lysis. Left: representative immunoblot. […] Right: quantification of LC3-II flux as the difference in LC3-II levels in cells treated with PI relative to untreated. […] (D) Quantification of the effect of adding increasing concentrations of AR7 and CA77.1 to NIH3T3 cells stably expressing the KFERQ-PS-Dendra reporter. CMA activity was quantified after 12 h or 24 h treatment as the average of fluorescent puncta per cell. […] Representative immunoblot of 4-5 mice per genotype and treatment (L) and densitometric quantification of AT8 as monomer [Kruskal-Wallis statistic=20.48, p<0.0001] […] (O, P) Quantification of the number of Iba1-positive microglial cells per mm^2 in the hippocampus [Kruskal-Wallis statistic=10.55, p=0.0051] […]

[2] = Blood cell count and histopathology of peripheral organs (liver, lung, kidney) after daily oral administration; format: in vivo; details: after 3 months of daily treatment
KFERQ-Dendra mice = experiment: CMA activation in brain of KFERQ-Dendra mice; details: administered in vivo
Source text: To test this possibility, we measured CMA in a mouse model of tau-mediated proteotoxicity expressing mutant human tau (hTau^P301L) under the Thy 1.2 promotor (line pR5). We crossed hTau^P301L mice with a transgenic mouse model that expresses systemically a KFERQ-tagged fluorescent protein Dendra2 (KFERQ-Dendra), recently developed by our group. This reporter protein, when targeted for degradation via CMA, highlights lysosomes as fluorescent puncta, that can be counted as read out of CMA activity.

NIH3T3 cells = experiment: Macroautophagic flux (LC3-II flux with/without lysosomal protease inhibitors); format: cell-based, mouse; details: 20 μM, 16 h
Procedure: as §1

CC(=O)Nc1ccc(-c2cnc3cc(Cl)ccc3n2)cc1 [CA77.1]
CMA activity in vitro [1]: activates CMA in vitro in dose- and time-dependent manner | blood or major organs toxicity [2]: absence of blood or major organs toxicity | activation of CMA in brain in vivo (KFERQ-Dendra mice): activation of CMA in brain of KFERQ-Dendra mice | effect on macroautophagy (LC3-II flux) (NIH3T3 cells): without affecting macroautophagy
